A short description of one data set: Solubility in solvents. As for the experimental part: Trityl thiol was dissolved in 0.6 mL of DCM and cooled to 0° C. TFA (30 μL) and iPr3SiH (2.0 μL, 10 μmol) were added to the solution at 0° C. The bath was removed and the reaction was allowed to stir at room temperature for 1 h. Solvent was removed by argon flow and the residue 14 is taken crude for biological evaluation.

Another data set concerns Class I HDAC. As to the kind of experiment: HDAC biochemical selectivity profiling. The note with it: FIG. 1B, versus free Largazole-thiol.
Another data set deals with HDACs1, 2 & 3. As to the kind of experiment: Affinity precipitation from HeLa Nuclear Extract with streptavidin beads, immunoblot. The format is binding. The conditions noted are these: 1 μM in 200 μL HeLa Nuclear Extract, 16 hr incubation, FIG. 1C. As for the experimental part:
1 μM Largazole-Btn (54) in 200 μL of HeLa Nuclear Extract […] of streptavidin beads added after 16 hr incubation with compound.

Another data set deals with T1, HDAC8 (Homo sapiens, UniProt Q9BY41).
T1 sequence (Q9BY41 1-377): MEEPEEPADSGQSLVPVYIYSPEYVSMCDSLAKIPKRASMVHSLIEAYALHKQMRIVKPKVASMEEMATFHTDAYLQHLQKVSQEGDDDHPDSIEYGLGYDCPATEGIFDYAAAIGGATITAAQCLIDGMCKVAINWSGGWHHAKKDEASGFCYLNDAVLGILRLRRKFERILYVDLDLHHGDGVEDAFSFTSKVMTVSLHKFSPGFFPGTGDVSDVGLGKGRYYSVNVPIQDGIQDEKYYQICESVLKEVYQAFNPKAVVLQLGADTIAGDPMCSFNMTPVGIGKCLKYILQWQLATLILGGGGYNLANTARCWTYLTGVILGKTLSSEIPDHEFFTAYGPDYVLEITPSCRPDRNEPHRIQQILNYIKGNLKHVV
As to the kind of experiment: Biochemical profiling for HDACi activity, miniaturized assay platform (HDAC1-9). The conditions noted are these: compared with IC50 for HDACs 1-3.

The next data set concerns the target HDAC2 (Homo sapiens, UniProt Q92769). Described as above.
In the next data set the target is HDAC1 (Homo sapiens, UniProt Q13547). The data set is described as above.
HDAC1, sequence (Q13547 whole entry): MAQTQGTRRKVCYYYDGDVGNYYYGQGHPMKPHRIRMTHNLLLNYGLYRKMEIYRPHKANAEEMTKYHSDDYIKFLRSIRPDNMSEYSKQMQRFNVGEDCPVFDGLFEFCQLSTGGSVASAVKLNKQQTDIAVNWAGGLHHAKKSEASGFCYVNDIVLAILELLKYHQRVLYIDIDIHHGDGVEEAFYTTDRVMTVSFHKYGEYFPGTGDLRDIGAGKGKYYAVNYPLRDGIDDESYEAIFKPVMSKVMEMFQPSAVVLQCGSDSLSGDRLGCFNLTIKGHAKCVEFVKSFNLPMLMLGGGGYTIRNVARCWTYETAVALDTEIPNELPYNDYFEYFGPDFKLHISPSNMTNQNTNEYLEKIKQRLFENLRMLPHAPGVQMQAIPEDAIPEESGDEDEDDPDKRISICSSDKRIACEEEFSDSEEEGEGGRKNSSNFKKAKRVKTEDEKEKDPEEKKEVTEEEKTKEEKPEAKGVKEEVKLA
A further data set deals with tumor. As to the kind of experiment: In vivo tumor growth inhibition study. The source says:
Although the distribution effect of these compounds is similar, there is a notable difference in drug exposure of ˜30 percent for the peptide isostere.

Data set [1] concerns NOTCH1 mutated T-ALL cells (DND41). As to the kind of experiment: ATP-based cell viability assay (CellTiter-Glo) in T-ALL cells. The note with it: DND41, 72, 144, 216 hours, 10 μM to 0.078 μM, FIGS. 11-13. The protocol: (§1) To test the hypothesis that largazole folate-conjugated small molecules target T-ALL, dose-ranging ATP content assays were performed. […] Next, an ATP-based assay (CellTiter-Glo, Promega®) was used to calculate the half-maximal inhibitory concentration (IC50) of cell viability. Graphs were plotted as a fraction of cells alive (y-axis) using Prism GraphPad 6 software and drug doses expressed as Log [μM] (x-axis).

In data set [2] the test system is NOTCH1 mutated T-ALL cells (ALL/SIL). The description is as above. The note with it: ALL/SIL, 72, 144, 216 hours, 10 μM to 0.078 μM, FIGS. 14-16. The protocol:
as §1

Where two headings read alike, the source gives them in different places.

HDAC2, sequence (Q92769 whole entry): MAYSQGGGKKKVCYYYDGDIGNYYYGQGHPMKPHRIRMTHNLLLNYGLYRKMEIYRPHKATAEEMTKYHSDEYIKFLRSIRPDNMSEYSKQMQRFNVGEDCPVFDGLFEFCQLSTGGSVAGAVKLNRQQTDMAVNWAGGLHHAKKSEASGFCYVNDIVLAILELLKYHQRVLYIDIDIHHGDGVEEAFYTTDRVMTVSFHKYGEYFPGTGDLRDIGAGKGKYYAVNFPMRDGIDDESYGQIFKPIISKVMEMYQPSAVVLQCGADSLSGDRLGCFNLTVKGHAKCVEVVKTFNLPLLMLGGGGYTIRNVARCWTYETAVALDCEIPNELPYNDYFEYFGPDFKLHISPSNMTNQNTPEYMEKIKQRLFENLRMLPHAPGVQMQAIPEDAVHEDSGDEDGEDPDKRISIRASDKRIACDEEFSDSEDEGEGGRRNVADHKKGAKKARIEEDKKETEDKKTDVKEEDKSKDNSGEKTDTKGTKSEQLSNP

For the molecule `CC(C)C1NC(=O)[C@]2(C)CSC(=N2)c2nc(sc2-c2ccc(CNC(=O)CC[C@H](NC(=O)c3ccc(NCc4cnc5nc(N)[nH]c(=O)c5n4)cc3)C(=O)O)cc2)CNC(=O)CC(/C=C/CCS)NC1=O` (some centres unmarked), the “solubility (solvents)” value in “Solubility in solvents” (FIG. 10 legend) is “only soluble in DMSO”.
In the case of `CC(C)[C@@H]1NC(=O)[C@]2(C)CSC(=N2)c2nc(sc2-c2ccc(CNC(=O)CCCCCNC(=O)CCCCCNC(=O)CCCCC3SC[C@@H]4NC(=O)N[C@H]34)cc2)CNC(=O)CC(/C=C/CCS)OC1=O` (some centres unmarked) [Largazole-Biotin], the biochemical selectivity result in the data set with Class I HDAC was “compares favorably to free Largazole-thiol”. Also, the “affinity precipitation of HDACs by immunoblot” value in the data set on HDACs1, 2 & 3 was “affinity precipitation of HDACs1, 2 & 3”.
On to `CCCCCCCC(=O)SCC/C=C/[C@@H]1CC(=O)NCc2nc(cs2)C2=N[C@@](C)(CS2)C(=O)N[C@@H](C(C)C)C(=O)O1` [Largazole], for which the “IC50 HDAC8” value against HDAC8 is reported as “much higher”. Moreover, the IC50 against HDAC2 and on HDAC1 was less than 20 nM each time. Further, the tumor growth inhibition with tumor worked out at 34%.
For `CC(C)[C@@H]1NC(=O)[C@]2(C)CSC(=N2)c2nc(sc2-c2ccc(CNC(=O)CC[C@H](NC(=O)c3ccc(NCc4cnc5nc(N)[nH]c(=O)c5n4)cc3)C(=O)O)cc2)CNC(=O)CC(/C=C/CCS)NC1=O` (some centres unmarked) [Compound 14], in the data set “Solubility in solvents” (crude product), the “solubility in organic solvent” value was “very poor” and the solubility in water entry is on record as “not soluble in water”.
largazole thiol gave a tumor growth inhibition in the data set on tumor of 44%.
For `CCCCCCCC(=O)SCC/C=C/C1CC(=O)NCc2nc(c(-c3ccc(COC(=O)CC[C@H](NC(=O)c4ccc(NCc5cnc6nc(N)[nH]c(=O)c6n5)cc4)C(=O)O)cc3)s2)C2=N[C@@](C)(CS2)C(=O)NC(C(C)C)C(=O)N1` (some centres unmarked), the cell viability result in data set [1] and in data set [2] was “loss of cellular viability” throughout. The “solubility (solvents)” value in the data set “Solubility in solvents” (FIG. 10 legend) is reported as “soluble in MeOH, CHCl3, DMSO”.
Turning to `CCCCCCCC(=O)SCC/C=C/C1CC(=O)NCc2nc(c(-c3ccc(CNC(=O)CC[C@H](NC(=O)c4ccc(NCc5cnc6nc(N)[nH]c(=O)c6n5)cc4)C(=O)O)cc3)s2)C2=N[C@@](C)(CS2)C(=O)NC(C(C)C)C(=O)N1` (some centres unmarked), in “Solubility in solvents”, the “solubility (solvents)” value is on record as “soluble in mixture of CH2Cl2-MeOH, or DMSO”.

Source of the values: patent US10538534B2 (Colorado State University Research Foundation, priority 2015, dated 2020).
